Target: T1, DPP-IV (Homo sapiens, UniProt P27487)
T1 construct: an extract of the human colon carcinoma cell line Caco-2 is used as the DPP IV source; endogenous in cells; host or cells: Caco-2 (human colon carcinoma), differentiated to induce DPP-IV expression; extract solubilized with Nonidet-P40
Assay: DPP-IV assay with Caco-2 cell extract as DPP IV source
Format: biochemical
Conditions: extract of human colon carcinoma cell line Caco-2; AFC substrate 100 μM; 60 minutes, ambient temperature; 11-point curves; read-out: DPP IV inhibition IC50
Protocol: The differentiation of the cells in order to induce the DPP-IV expression was carried out in accordance with the description by Reiher et al. in an article entitled “Increased expression of intestinal cell line Caco-2” that appeared in Proc. Natl. Acad. Sci. Vol. 90, pp. 5757-5761 (1993). The cell extract was obtained from cells solubilized in a buffer (10 mM Tris HCl, 0.15 M NaCl, 0.04 t.i.u. aprotinin, 0.5% Nonidet-P40, pH 8.0) by centrifugation at 35,000 g for 30 minutes at 4° C. (to remove cell debris).
The DPP-IV assay was carried out as follows:
50 μl of substrate solution (AFC; AFC is amido-4-trifluoromethylcoumarin), final concentration 100 μM, was placed in black microtitre plates. 20 μl of assay buffer (final concentrations 50 mM Tris HCl pH 7.8, 50 mM NaCl, 1% DMSO) was pipetted therein. The reaction was started by the addition of 30 μl of solubilized Caco-2 protein (final concentration 0.14 μg of protein per well). The test substances under investigation were typically added prediluted to 20 μl, while the volume of assay buffer was then reduced accordingly. The reaction was carried out at ambient temperature, the incubation period was 60 minutes. Then the fluorescence was measured in a Victor 1420 Multilabel Counter, with the excitation wavelength at 405 nm and the emission wavelength at 535 nm. Dummy values (corresponding to 0% activity) were obtained in mixtures with no Caco-2 protein (volume replaced by assay buffer), control values (corresponding to 100% activity) were obtained in mixtures without any added substance. The potency of the test substances in question, expressed as IC50 values, were calculated from dosage/activity curves consisting of 11 measured points in each case.

T1 sequence (P27487 whole entry): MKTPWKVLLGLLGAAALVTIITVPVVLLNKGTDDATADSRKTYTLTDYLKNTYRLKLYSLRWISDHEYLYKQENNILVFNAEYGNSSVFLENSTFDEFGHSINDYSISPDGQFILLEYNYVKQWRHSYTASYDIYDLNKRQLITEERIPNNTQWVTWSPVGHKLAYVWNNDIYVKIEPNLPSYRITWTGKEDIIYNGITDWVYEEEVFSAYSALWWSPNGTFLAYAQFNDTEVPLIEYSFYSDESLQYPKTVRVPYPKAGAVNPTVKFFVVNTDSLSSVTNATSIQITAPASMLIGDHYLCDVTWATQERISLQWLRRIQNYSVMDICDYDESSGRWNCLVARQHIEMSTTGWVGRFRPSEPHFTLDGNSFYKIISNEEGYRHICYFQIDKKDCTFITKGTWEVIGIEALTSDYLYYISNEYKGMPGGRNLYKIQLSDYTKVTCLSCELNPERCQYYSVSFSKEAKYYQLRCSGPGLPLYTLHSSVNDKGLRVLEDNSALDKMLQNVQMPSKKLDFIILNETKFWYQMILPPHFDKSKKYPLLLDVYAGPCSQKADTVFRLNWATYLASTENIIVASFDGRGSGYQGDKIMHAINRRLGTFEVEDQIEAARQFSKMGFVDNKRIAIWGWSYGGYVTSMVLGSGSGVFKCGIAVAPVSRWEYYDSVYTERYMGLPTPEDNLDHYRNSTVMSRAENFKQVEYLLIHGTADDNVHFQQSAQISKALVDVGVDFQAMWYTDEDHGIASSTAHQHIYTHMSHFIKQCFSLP

Row | IC50 [nM] | SMILES
1 | 6 | C=CCn1c(=O)c2nc(N3CCC[C@@H](N)C3)n(CC#CC)c2c(=O)n1Cc1ccc2ccccc2n1 [1(2), (R)-1-(but-2-ynyl)-2-(3-amino-piperidin-1-yl)-5-(prop-2-enyl)-6-(quinolin-2-ylmethyl)-5,6-dihydro-1H-imidazo[4,5-d]pyridazine-4,7-dione×2 trifluoroacetic acid]
2 | 4 | CC#CCn1c(N2CCC[C@@H](N)C2)nc2c(=O)n(C)n(Cc3ccc4ccccc4n3)c(=O)c21 [1(1), (R)-1-(but-2-ynyl)-2-(3-amino-piperidin-1-yl)-5-methyl-6-(quinolin-2-ylmethyl)-5,6-dihydro-1H-imidazo[4,5-d]pyridazine-4,7-dione×2 trifluoroacetic acid]
3 | 14 | CC#CCn1c(N2CCC[C@@H](N)C2)nc2c(=O)n(Cc3ccccc3)n(Cc3ccc4ccccc4n3)c(=O)c21 [1(3), (R)-1-(but-2-ynyl)-2-(3-amino-piperidin-1-yl)-5-(phenylmethyl)-6-(quinolin-2-ylmethyl)-5,6-dihydro-1H-imidazo[4,5-d]pyridazine-4,7-dione×2 trifluoroacetic acid]
4 | 1 | CC#CCn1c(N2CCC[C@@H](N)C2)nc2c(=O)n(CC#N)n(Cc3ccc4ccccc4n3)c(=O)c21 [Example 1, (R)-1-(but-2-ynyl)-2-(3-amino-piperidin-1-yl)-5-cyanomethyl-6-(quinolin-2-ylmethyl)-5,6-dihydro-1H-imidazo[4,5-d]pyridazine-4,7-dione×2 trifluoroacetic acid]
5 | 52 | CC#CCn1c(N2CCC[C@@H](N)C2)nc2c(=O)n(C)n(Cc3cccc4ccccc34)c(=O)c21 [1(4), (R)-1-(but-2-ynyl)-2-(3-amino-piperidin-1-yl)-5-methyl-6-(naphth-1-ylmethyl)-5,6-dihydro-1H-imidazo[4,5-d]pyridazine-4,7-dione×1 trifluoroacetic acid]
